# Assay results as given in patent US20080286815A1, “SPECTROPHOTOMETRIC ASSAY FOR HUMAN HISTONE DEACETYLASE 8” (THE UNIVERSITY OF AKRON, priority 2007, published 2008).
# Ends that are not written are not given here.
# How the values were obtained:
# [1] = tested on: HeLa nuclear extracts enriched in HDAC1 and 2; assay: HPLC-based and DTNB-based assays with HeLa nuclear extracts; assay type: biochemical, human; details: for dethioacetylation by HeLa nuclear extracts: HDAC8 replaced with HeLa nuclear extracts, HPLC-based and DTNB-based assay formats; for kobs (deacetylation by HeLa nuclear extracts): 30 min; for kobs (deacetylation by HeLa nuclear extracts) / substrate turnover: HPLC analysis; for substrate turnover: at 30 min
# Protocol: (§1) HPLC-based enzymatic assay. The HPLC data shown in FIG. 4 was generated using the following procedure. The HDAC8-catalyzed dethioacetylation reaction was performed in the same HDAC8 assay solution as above-described, except that no thioacetic acid was added but purified HDAC8 and its substrate (i.e. the above-described peptide ii) were added to final concentrations of 375 nM and 0.3 mM, respectively. An enzymatic reaction was initiated by the addition of HDAC8 at room temperature and was allowed to be incubated at room temperature until quenched at different time points with the following stop solution: 3.2 M guanidinium chloride in 100 mM of sodium phosphate (pH 6.8). One portion (40 uL) of the HDAC8 assay mixture was quenched with 80 uL of the above stop solution, and was analyzed as set forth above by RP-HPLC with a C18 analytical column (100 Å, 0.46×25 cm), eluting with the following gradient of double deionized water containing 0.05% (v/v) trifluoroacetic acid (mobile phase A) and acetonitrile containing 0.05% (v/v) trifluoroacetic acid (mobile phase B): linear increase from 0% B to 35% B from 0-40 min (1 mL/min), and ultraviolet (UV) monitoring at 214 nm. The enzymatically formed dethioacetylated product (i.e. the above-referenced peptide i) was confirmed by its comigration with the chemically synthesized authentic sample and by mass spectrometric analysis with MALDI-TOF, and was quantified by HPLC peak integration and comparison with that of the synthetic authentic sample. The same assay protocol was used when the HeLa nuclear extracts were used instead of human HDAC8. Nearly same assay protocols were used when purified HDAC1 and HDAC2 were employed instead of HDAC8, with the following exceptions: i) For HDAC1 assays, 50 mM Tris.HCl (pH 8.0) was used instead of 25 mM Tris.HCl (pH 8.0); ii) HDAC2 assays were performed at 30° C. instead of RT; iii) HDAC1 and HDAC2 assay solutions were all quenched with the following stop solution: 1.0 M HCl and 0.16 M acetic acid. These changes were instituted to more clearly assess the selectivity.
# DTNB-based enzymatic assay. The DTNB data shown in FIG. 4 was generated using the following procedure. A second portion (300 µL) of the above HDAC8 assay mixture was quenched with 600 µL of the stop solution: 3.2 M guanidinium chloride in 100 mM of sodium phosphate (pH 6.8), and was analyzed by the DTNB-based assay procedure according to the invention, i.e. 60 min after the quench and DTNB (100 µL) addition, A412 was recorded for each sample derived at different time points of the same assay reaction. Again, the same assay protocol was used when the HeLa nuclear extracts were used instead of human HDAC8. To measure the kinetic parameters for the thioacetyl-lysine p53 peptide as an in vitro HDAC8 substrate, all the assay reactions contained 375 nM of HDAC8, a range of substrate concentrations varied around the Km value, and were allowed to proceed at room temperature for 1 hour before quenching. Reaction velocities were determined under initial condition (substrate turnover <10%). This experiment was performed twice, and each duplicate measurement agreed within 20%. By using a non-linear least squares approach with the computer program Kaleidagraph (Reading, Pa., USA), kinetic parameters (kcat and Km) were derived from the Michaelis-Menten plot based on the experimental data.
# Assay with HeLa nuclear extracts. In order to examine the selectivity of our newly developed DTNB-based spectrophotometric assay among different classical HDAC enzymes, we initially performed both the HPLC-based and the DTNB-based assays with the HeLa nuclear extracts enriched in HDAC1 and 2. The procedures for the HDAC8 assay were followed.
# purified human HDAC1 = purified human HDAC1 (Homo sapiens, UniProt Q13547); assay: HPLC-based assay with purified HDAC1; assay type: biochemical; details: for dethioacetylation by HDAC1: purified HDAC1, HPLC-based assay format
# Protocol: as §1, with “selectivity. […]” for “selectivity.”
# purified human HDAC2 = purified human HDAC2 (Homo sapiens, UniProt Q92769); assay: HPLC-based assay with purified HDAC2; assay type: biochemical; details: for dethioacetylation by HDAC2: purified HDAC2, 30° C., HPLC-based assay format
# Protocol: as §1, with “selectivity. […]” for “selectivity.”
# [2] = listed as thioacetyl-lysin peptide
# purified human HDAC1, sequence (Q13547 whole entry): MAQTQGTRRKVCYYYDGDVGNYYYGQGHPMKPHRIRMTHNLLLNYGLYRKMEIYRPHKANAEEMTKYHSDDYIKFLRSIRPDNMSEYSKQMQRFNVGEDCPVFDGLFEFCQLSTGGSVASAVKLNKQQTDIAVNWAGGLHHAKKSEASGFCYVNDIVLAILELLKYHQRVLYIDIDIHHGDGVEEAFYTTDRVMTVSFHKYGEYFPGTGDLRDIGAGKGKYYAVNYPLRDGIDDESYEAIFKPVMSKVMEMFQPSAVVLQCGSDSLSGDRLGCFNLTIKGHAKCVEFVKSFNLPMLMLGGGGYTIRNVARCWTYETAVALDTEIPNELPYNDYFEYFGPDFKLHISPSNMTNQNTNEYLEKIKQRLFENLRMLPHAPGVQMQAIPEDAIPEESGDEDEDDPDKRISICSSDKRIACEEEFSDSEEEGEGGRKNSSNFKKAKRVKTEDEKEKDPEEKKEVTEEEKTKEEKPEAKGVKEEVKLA
# purified human HDAC2, sequence (Q92769 whole entry): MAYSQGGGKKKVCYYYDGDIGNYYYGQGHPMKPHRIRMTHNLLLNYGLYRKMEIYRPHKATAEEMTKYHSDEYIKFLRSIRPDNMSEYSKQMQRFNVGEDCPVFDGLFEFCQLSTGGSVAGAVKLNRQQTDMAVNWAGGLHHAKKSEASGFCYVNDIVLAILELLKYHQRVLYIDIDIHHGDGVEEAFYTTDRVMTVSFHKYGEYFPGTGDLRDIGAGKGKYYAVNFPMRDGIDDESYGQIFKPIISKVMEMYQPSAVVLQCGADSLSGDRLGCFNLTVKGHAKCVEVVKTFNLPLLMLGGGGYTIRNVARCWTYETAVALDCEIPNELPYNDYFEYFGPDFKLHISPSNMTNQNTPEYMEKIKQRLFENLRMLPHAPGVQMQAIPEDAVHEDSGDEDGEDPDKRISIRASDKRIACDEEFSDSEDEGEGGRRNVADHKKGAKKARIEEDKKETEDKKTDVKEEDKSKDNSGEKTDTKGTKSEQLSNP
compound,measurement,setting,value
AcNH—RH(ThAcK)(ThAcK)—CONH2,dethioacetylation by HeLa nuclear extracts,[1],no detectable dethioacetylation
AcNH—RH(AcK)—(AcK)—CONH2,kobs (deacetylation by HeLa nuclear extracts),[1],0.29±0.02 uM/(min·4 uL of the nuclear extracts)
"acetyl-lysine p53 peptide: human p53 C-terminal peptide (amino acid residue 372-389) containing Nε-acetyl-lysine at the 382 position (KKGQSTSRHKK(Ac)LMFKTEG; UniProt P04637 372-389, looked up, fragment)",kobs (deacetylation by HeLa nuclear extracts),[1],0.23±0.01 uM/(min·4 uL of the nuclear extracts)
same,substrate turnover,[1]; 4 uL of the HeLa nuclear extracts (9 mg of protein per mL),2.3%
same,substrate turnover,[1]; 12 uL of the HeLa nuclear extracts (9 mg of protein per mL),6.5%
same,kobs (deacetylation by HDAC1),"purified human HDAC1; purified HDAC1, at 2 h",0.41 ± 0.23 min⁻¹
same,kobs (deacetylation by HDAC2),"purified human HDAC2; purified HDAC2, at 30 min",6.78 ± 2.39 min⁻¹
"CSCC[C@H](NC(=O)[C@H](CC(C)C)NC(=O)[C@H](CCCCNC(C)=S)NC(=O)[C@H](CCCCN)NC(=O)[C@H](Cc1c[nH]cn1)NC(=O)[C@H](CCCNC(=N)N)NC(=O)[C@H](CO)NC(=O)[C@@H](NC(=O)[C@H](CO)NC(=O)[C@H](CCC(N)=O)NC(=O)CNC(=O)[C@H](CCCCN)NC(=O)[C@@H](N)CCCCN)[C@@H](C)O)C(=O)N[C@@H](Cc1ccccc1)C(=O)N[C@@H](CCCCN)C(=O)N[C@H](C(=O)N[C@@H](CCC(=O)O)C(=O)NCC(=O)O)[C@@H](C)O [thioacetyl-lysine p53 peptide, H2N-KKGQSTSRHK(ThAcK)LMFKTEG-COOH]",dethioacetylation by HeLa nuclear extracts,[1],no detectable dethioacetylation
same,dethioacetylation by HeLa nuclear extracts,[1]; listed as thioacetyl-lysine peptide,did not serve as a substrate
same,dethioacetylation by HDAC1,purified human HDAC1,no detectable dethioacetylation
same,dethioacetylation by HDAC1,purified human HDAC1; [2],did not serve as a substrate
same,dethioacetylation by HDAC2,purified human HDAC2,no detectable dethioacetylation
same,dethioacetylation by HDAC2,purified human HDAC2; [2],did not serve as a substrate
